According to patent publication US11939361B2, “Compositions of peptide inhibitors of Interleukin-23 receptor” (Janssen Pharmaceutica NV, priority 2020, dated 2024):

How the values were obtained:
[1] = tested on: rat IL-23 induced skin inflammation model; assay: Rat IL-23 induced ear thickening; type: in vivo, Sprague-Dawley rats; design: key to IL-23 induced ear thickening, comparison to control (significance): ns: not significant; **: p < 0.01; ***: p < 0.001; ****: p < 0.0001; conditions: for IL-23 induced ear thickening, comparison to control (significance): control Vehicle
Description: Ear inflammation was induced in Sprague-Dawley rats by daily intradermal injection of recombinant rat IL-23 on study days 0-3. Treatment with the peptide of SEQ ID NO: 1 (dose response by oral gavage; 1, 3, 10, 30, 100, and 300 mg/kg, twice a day) was initiated prophylactically starting one day prior to and continued through day 3 after induction of inflammation. All rats were humanely euthanized on day 4. An anti-IL-23 monoclonal antibody (administered intraperitoneally on days −1 and day 3) was included in all studies as a positive control and comparator.
Recombinant rat IL-23 was diluted with PBS to a concentration of 75 μg/mL, divided into 2.0 mL aliquots, and stored at −80° C. Daily from day 0 through day 3, rats were anesthetized with isoflurane and IL-23 was intradermally injected (i.d.) into the right ear (1.5 μg in a volume of 20 μL). In the control group, 20 μL of PBS was injected.
Starting the morning prior to IL-23 injection through the evening of day 3, rats were dosed with either vehicle (phosphate buffer) or the peptide of SEQ ID NO: 1 compound twice daily (approximately 10 hours apart between doses during the day) by oral gavage (p.o.) in a volume of 5 mL/kg. In one experiment, the peptide of SEQ ID NO: 1 was also administered subcutaneously (s.c.) in a volume of 5 mL/kg.
Anti-IL-23p19 antibody or isotype antibody was administered via intraperitoneal injection (i.p.) in a volume of 5 mL/kg on days −1 and 3.
The purpose of the rat ear thickening experiment is to determine whether the orally dosed peptide of SEQ ID NO: 1 has sufficient systemic exposure to provide inhibition of IL-23R in skin tissue, thus modeling orally dosed therapeutic efficacy in psoriatic skin tissue. The animals from Example 19 were also used for Example 20. On day 0, prior to IL-23 injection, the ipsilateral ears averaged approximately 0.4 mm. In rats injected with saline, the ears did swell as a result of the repeated intradermal injections, by an average of 0.053 mm by day 4. By comparison, injection of IL-23 caused the ears of both vehicle-treated and isotype antibody-treated rats to progressively increase in thickness, reaching an average of approximately 0.240 to 0.242 mm by day 4, respectively. […] Reductions in ear thickness at doses of 2 mg/kg, s.c. and 20 mg/kg, p.o., q.d. were not statistically significant (FIG. 9 and Table 15).

[2] = Rat PK Study 1: intraduodenal/intracolonic dosing with absorption enhancers; type: in vivo, Sprague Dawley rats
Description: In this Example, a screen of various absorption enhancers was assessed. […] The following absorption enhancers were tested: sodium caprate (NaCl0), sodium salcaprozate (SNAC), sucrose laureate, Peptelligence (proprietary technology from Enteris Pharma-undisclosed composition) and Labrasol. The solutions were dosed by intracolonic (IC) or intraduodenal (ID) injection to rats. […] NaCl0 gave the highest systemic exposure followed by Peptelligence, then Labrasol, then SNAC, and finally sucrose laureate. Accordingly, sodium caprate was determined to be a preferred absorption enhancer. […] Therefore, the systemic exposure is likely to be high enough to afford systemic activity.
The following absorption enhancers were evaluated: sodium caprate (NaCl0, 100 mg/kg), SNAC (100 mg/kg), sucrose laurate (100 mg/kg), Enteris A (proprietary technology of Enteris Pharma) (60 mg/kg), and Labrasol (100 mg/kg).

CC(=O)NCCCC[C@@H]1NC(=O)[C@H](Cc2c[nH]c3c(C)cccc23)NC(=O)[C@H]([C@@H](C)O)NC(=O)[C@H](CC(N)=O)NC(=O)[C@@H](NC(C)=O)C(C)(C)SSC(C)(C)[C@@H](C(=O)N[C@@H](Cc2ccc(OCCN)cc2)C(=O)N[C@@H](Cc2ccc3ccccc3c2)C(=O)NC2(C(=O)N[C@@H](CCC(=O)O)C(=O)N[C@@H](CC(N)=O)C(=O)N[C@@H](Cc3cccnc3)C(=O)N(C)CC(N)=O)CCOCC2)NC1=O [SEQ ID NO: 1, Ac-[Pen]*—N-T-[W(7-Me)]-[Lys(Ac)]-[Pen]*-Phe[4-(2-aminoethoxy)]-[2-Nal]-[THP]-E-N-[3-Pal]-Sarc-NH2]
IL-23 induced ear thickening, comparison to control (significance) ([1]; 1 mg/kg, p.o., b.i.d., Day 1): ns
IL-23 induced ear thickening, comparison to control (significance) ([1]; 1 mg/kg, p.o., b.i.d., Day 2): ns
IL-23 induced ear thickening, comparison to control (significance) ([1]; 1 mg/kg, p.o., b.i.d., Day 3): **** (p < 0.0001)
IL-23 induced ear thickening, comparison to control (significance) ([1]; 1 mg/kg, p.o., b.i.d., Day 4): **** (p < 0.0001)
IL-23 induced ear thickening, comparison to control (significance) ([1]; 2 mg/kg, s.c., b.i.d., Day 1): ns
IL-23 induced ear thickening, comparison to control (significance) ([1]; 2 mg/kg, s.c., b.i.d., Day 2): ns
IL-23 induced ear thickening, comparison to control (significance) ([1]; 2 mg/kg, s.c., b.i.d., Day 3): ns
IL-23 induced ear thickening, comparison to control (significance) ([1]; 2 mg/kg, s.c., b.i.d., Day 4): ns
IL-23 induced ear thickening, comparison to control (significance) ([1]; 3 mg/kg, p.o., b.i.d., Day 1): ns
IL-23 induced ear thickening, comparison to control (significance) ([1]; 3 mg/kg, p.o., b.i.d., Day 2): ns
IL-23 induced ear thickening, comparison to control (significance) ([1]; 3 mg/kg, p.o., b.i.d., Day 3): *** (p < 0.001)
IL-23 induced ear thickening, comparison to control (significance) ([1]; 3 mg/kg, p.o., b.i.d., Day 4): *** (p < 0.001)
IL-23 induced ear thickening, comparison to control (significance) ([1]; 10 mg/kg, p.o., b.i.d., Day 1): ns
IL-23 induced ear thickening, comparison to control (significance) ([1]; 10 mg/kg, p.o., b.i.d., Day 2): ns
IL-23 induced ear thickening, comparison to control (significance) ([1]; 10 mg/kg, p.o., b.i.d., Day 3): *** (p < 0.001)
IL-23 induced ear thickening, comparison to control (significance) ([1]; 10 mg/kg, p.o., b.i.d., Day 4): **** (p < 0.0001)
IL-23 induced ear thickening, comparison to control (significance) ([1]; 20 mg/kg, p.o., q.d., Day 1): ns
IL-23 induced ear thickening, comparison to control (significance) ([1]; 20 mg/kg, p.o., q.d., Day 2): ns
IL-23 induced ear thickening, comparison to control (significance) ([1]; 20 mg/kg, p.o., q.d., Day 3): ns
IL-23 induced ear thickening, comparison to control (significance) ([1]; 20 mg/kg, p.o., q.d., Day 4): ns
IL-23 induced ear thickening, comparison to control (significance) ([1]; 30 mg/kg, p.o., b.i.d., Day 1): ns
IL-23 induced ear thickening, comparison to control (significance) ([1]; 30 mg/kg, p.o., b.i.d., Day 3): **** (p < 0.0001)
IL-23 induced ear thickening, comparison to control (significance) ([1]; 30 mg/kg, p.o., b.i.d., Day 4): **** (p < 0.0001)
IL-23 induced ear thickening, comparison to control (significance) ([1]; 100 mg/kg, p.o., b.i.d., Day 1): ns
IL-23 induced ear thickening, comparison to control (significance) ([1]; 100 mg/kg, p.o., b.i.d., Day 2): ns
IL-23 induced ear thickening, comparison to control (significance) ([1]; 100 mg/kg, p.o., b.i.d., Day 3): **** (p < 0.0001)
IL-23 induced ear thickening, comparison to control (significance) ([1]; 100 mg/kg, p.o., b.i.d., Day 4): **** (p < 0.0001)
day 4 ear swelling, average ([1]; 300 mg/kg, b.i.d., oral): 0.120 mm
IL-23 induced ear thickening, comparison to control (significance) ([1]; 300 mg/kg, p.o., b.i.d., Day 1): ns
IL-23 induced ear thickening, comparison to control (significance) ([1]; 300 mg/kg, p.o., b.i.d., Day 2): ns
IL-23 induced ear thickening, comparison to control (significance) ([1]; 300 mg/kg, p.o., b.i.d., Day 3): *** (p < 0.001)
IL-23 induced ear thickening, comparison to control (significance) ([1]; 300 mg/kg, p.o., b.i.d., Day 4): **** (p < 0.0001)
efficacy on ear thickening ([1]; doses of 10 mg/kg (p.o., b.i.d.) and above): equaled or exceeded that of anti-IL-23 antibody treatment
IL-23 induced ear thickening ([1]; orally administered): prevented
Fabs ([2]; IC dose 10 mg/kg, Enteris A 60 mg/kg): 2.98%
Fabs ([2]; IC dose 10 mg/kg, Labrasol 100 mg/kg): 5.82%
Fabs ([2]; IC dose 10 mg/kg, NaC10 100 mg/kg): 6.36%
Fabs ([2]; IC dose 10 mg/kg, SNAC 100 mg/kg): 1.64%
Fabs ([2]; IC dose 10 mg/kg, Sucrose laurate 100 mg/kg): 0.939%
Fabs ([2]; IC dose 10 mg/kg, no absorption enhancer): 0.0531%
Fabs ([2]; ID dose 10 mg/kg, Enteris A 60 mg/kg): 5.06%
Fabs ([2]; ID dose 10 mg/kg, Labrasol 100 mg/kg): 3.26%
Fabs ([2]; ID dose 10 mg/kg, NaC10 100 mg/kg): 6.24%
Fabs ([2]; ID dose 10 mg/kg, SNAC 100 mg/kg): 1.13%
Fabs ([2]; ID dose 10 mg/kg, Sucrose laurate 100 mg/kg): 0.764%
Fabs ([2]; ID dose 10 mg/kg, no absorption enhancer): 0.360%
